For three molecules, Activity results are on record in ChEMBL document CHEMBL5715954, “Silencing c-Myc translation as a therapeutic strategy through targeting PI3Kδ and CK1ε in hematological malignancies” (Blood, 2017).

SMILES strings stand for the structures.

Set-up in all cases: scale not given: the % may be the effect or the level left
In assay [1] the target is Ribosomal protein S6 kinase alpha-5 (Homo sapiens) (UniProt O75582). Briefly: Inhibition of human MSK1 assessed as enzyme activity at 1 uM using GRPRTSSFAEG as substrate preincubated for 20 mins followed by [gamma-33P]-ATP addition and measured after 120 mins by radiometric Hot-SpotSM Kinase assay relative to control.
Assay [2] addresses Leucine-rich repeat serine/threonine-protein kinase 2 (Homo sapiens) (UniProt Q5S007). Nature of the assay: Inhibition of human LRRK2 assessed as enzyme activity at 1 uM using RLGRDKYKTLRQIRQ as substrate preincubated for 20 mins followed by [gamma-33P]-ATP addition and measured after 120 mins by radiometric Hot-SpotSM Kinase assay relative to control.
Assay [3] concerns the target Ephrin type-A receptor 4 (Homo sapiens) (UniProt P54764). Nature of the assay: Inhibition of human EPHA4 assessed as enzyme activity at 1 uM using poly[Glu:Tyr] (4:1) as substrate preincubated for 20 mins followed by [gamma-33P]-ATP addition and measured after 120 mins by radiometric Hot-SpotSM Kinase assay relative to control.
Assay [4] deals with TRAF2 and NCK-interacting protein kinase (Homo sapiens) (UniProt Q9UKE5). Nature of the assay: Inhibition of human TNIK assessed as enzyme activity at 1 uM using RLGRDKYKTLRQIRQ as substrate preincubated for 20 mins followed by [gamma-33P]-ATP addition and measured after 120 mins by radiometric Hot-SpotSM Kinase assay relative to control.
In assay [5] the target is G protein-coupled receptor kinase 4 (Homo sapiens) (UniProt P32298). Nature of the assay: Inhibition of human GRK4 assessed as enzyme activity at 1 uM using casein as substrate preincubated for 20 mins followed by [gamma-33P]-ATP addition and measured after 120 mins by radiometric Hot-SpotSM Kinase assay relative to control.
The target of assay [6] is TGF-beta receptor type-2 (Homo sapiens) (UniProt P37173). Nature of the assay: Inhibition of human TGFBR2 assessed as enzyme activity at 1 uM using myelin basic protein as substrate preincubated for 20 mins followed by [gamma-33P]-ATP addition and measured after 120 mins by radiometric Hot-SpotSM Kinase assay relative to control.
For assay [7], the target named is T1, Serine/threonine-protein kinase Nek1 (Homo sapiens) (UniProt Q96PY6).
T1 sequence (whole entry): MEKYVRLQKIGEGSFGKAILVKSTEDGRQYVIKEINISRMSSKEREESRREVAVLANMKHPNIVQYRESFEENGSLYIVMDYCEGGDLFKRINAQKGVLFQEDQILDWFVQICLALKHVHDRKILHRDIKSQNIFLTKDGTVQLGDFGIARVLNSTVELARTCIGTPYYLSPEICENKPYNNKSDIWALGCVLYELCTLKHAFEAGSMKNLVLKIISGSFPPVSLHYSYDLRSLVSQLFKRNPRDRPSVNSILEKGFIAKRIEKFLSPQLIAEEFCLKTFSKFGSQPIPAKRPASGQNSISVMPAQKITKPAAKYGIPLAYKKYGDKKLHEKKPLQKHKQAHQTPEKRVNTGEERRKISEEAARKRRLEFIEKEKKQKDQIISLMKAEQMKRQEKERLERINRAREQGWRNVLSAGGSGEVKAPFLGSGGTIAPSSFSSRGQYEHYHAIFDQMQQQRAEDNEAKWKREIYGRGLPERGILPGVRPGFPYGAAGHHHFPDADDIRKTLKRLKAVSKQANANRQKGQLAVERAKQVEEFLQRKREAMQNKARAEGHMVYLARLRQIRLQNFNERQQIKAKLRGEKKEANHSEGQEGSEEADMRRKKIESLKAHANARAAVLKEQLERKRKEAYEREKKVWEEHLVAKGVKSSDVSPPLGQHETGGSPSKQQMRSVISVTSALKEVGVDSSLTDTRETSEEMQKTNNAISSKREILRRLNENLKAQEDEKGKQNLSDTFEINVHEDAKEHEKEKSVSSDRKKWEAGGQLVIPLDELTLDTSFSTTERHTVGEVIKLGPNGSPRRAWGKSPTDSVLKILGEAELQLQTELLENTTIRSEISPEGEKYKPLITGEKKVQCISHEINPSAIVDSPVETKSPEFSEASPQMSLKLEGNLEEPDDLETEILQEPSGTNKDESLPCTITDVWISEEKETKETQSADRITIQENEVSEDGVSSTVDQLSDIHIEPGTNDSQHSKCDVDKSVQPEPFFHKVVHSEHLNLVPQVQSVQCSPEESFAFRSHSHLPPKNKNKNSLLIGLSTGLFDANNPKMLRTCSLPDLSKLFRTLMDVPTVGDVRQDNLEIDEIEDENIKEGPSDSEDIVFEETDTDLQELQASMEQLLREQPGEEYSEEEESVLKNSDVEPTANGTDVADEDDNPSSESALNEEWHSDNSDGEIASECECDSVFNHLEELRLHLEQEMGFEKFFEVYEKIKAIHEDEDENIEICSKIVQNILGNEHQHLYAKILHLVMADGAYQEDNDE
Nature of the assay: Inhibition of human NEK1 assessed as enzyme activity at 1 uM using myelin basic protein as substrate preincubated for 20 mins followed by [gamma-33P]-ATP addition and measured after 120 mins by radiometric Hot-SpotSM Kinase assay relative to control.

The target in assay [8] is Protein kinase C gamma type (Homo sapiens) (UniProt P05129). Nature of the assay: Inhibition of human PKCg assessed as enzyme activity at 1 uM using ERMRPRKRQGSVRRRV as substrate preincubated for 20 mins followed by [gamma-33P]-ATP addition and measured after 120 mins by radiometric Hot-SpotSM Kinase assay relative to control.
For assay [9], the target named is T2, Testis-specific serine/threonine-protein kinase 1 (Homo sapiens) (UniProt Q9BXA7).
T2 sequence (whole entry): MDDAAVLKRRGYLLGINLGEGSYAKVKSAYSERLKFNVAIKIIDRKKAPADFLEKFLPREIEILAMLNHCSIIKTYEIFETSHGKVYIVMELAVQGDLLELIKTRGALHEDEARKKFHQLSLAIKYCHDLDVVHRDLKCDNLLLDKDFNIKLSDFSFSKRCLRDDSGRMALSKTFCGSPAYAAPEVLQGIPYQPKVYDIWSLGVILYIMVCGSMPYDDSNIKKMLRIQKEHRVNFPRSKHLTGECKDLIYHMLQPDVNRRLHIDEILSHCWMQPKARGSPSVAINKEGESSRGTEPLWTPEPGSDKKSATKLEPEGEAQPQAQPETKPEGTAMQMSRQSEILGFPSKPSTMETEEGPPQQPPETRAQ
Briefly: Inhibition of human STK22D assessed as enzyme activity at 1 uM using KKKVSRSGLYRSPSMPENLNRPR as substrate preincubated for 20 mins followed by [gamma-33P]-ATP addition and measured after 120 mins by radiometric Hot-SpotSM Kinase assay relative to control.

The target of assay [10] is Ribosomal protein S6 kinase alpha-4 (Homo sapiens) (UniProt O75676). Briefly: Inhibition of human MSK2 assessed as enzyme activity at 1 uM using GRPRTSSFAEG as substrate preincubated for 20 mins followed by [gamma-33P]-ATP addition and measured after 120 mins by radiometric Hot-SpotSM Kinase assay relative to control.

Ribosomal protein S6 kinase alpha-5 (Homo sapiens), sequence (O75582 whole entry, looked up): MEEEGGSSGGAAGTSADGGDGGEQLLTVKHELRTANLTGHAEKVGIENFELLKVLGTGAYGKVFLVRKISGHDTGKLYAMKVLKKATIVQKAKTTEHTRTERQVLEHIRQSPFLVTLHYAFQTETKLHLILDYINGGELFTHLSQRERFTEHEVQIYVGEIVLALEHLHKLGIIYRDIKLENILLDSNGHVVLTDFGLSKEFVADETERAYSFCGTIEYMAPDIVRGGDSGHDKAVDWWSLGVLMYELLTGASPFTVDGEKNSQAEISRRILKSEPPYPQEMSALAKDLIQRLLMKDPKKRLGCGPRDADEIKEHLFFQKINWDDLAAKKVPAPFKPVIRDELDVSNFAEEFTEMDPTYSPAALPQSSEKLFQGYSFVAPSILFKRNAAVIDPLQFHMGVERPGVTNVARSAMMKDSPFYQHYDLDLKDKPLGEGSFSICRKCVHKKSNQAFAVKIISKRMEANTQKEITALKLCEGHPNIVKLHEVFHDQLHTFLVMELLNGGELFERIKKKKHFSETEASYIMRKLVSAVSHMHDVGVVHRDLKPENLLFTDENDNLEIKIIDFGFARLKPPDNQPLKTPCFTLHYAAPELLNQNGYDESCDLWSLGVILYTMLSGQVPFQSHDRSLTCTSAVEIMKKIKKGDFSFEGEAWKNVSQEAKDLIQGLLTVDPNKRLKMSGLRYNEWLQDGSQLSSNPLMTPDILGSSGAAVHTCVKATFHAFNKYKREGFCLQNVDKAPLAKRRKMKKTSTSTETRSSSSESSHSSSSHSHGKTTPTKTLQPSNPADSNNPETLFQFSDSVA
TRAF2 and NCK-interacting protein kinase (Homo sapiens), sequence (Q9UKE5 whole entry, looked up): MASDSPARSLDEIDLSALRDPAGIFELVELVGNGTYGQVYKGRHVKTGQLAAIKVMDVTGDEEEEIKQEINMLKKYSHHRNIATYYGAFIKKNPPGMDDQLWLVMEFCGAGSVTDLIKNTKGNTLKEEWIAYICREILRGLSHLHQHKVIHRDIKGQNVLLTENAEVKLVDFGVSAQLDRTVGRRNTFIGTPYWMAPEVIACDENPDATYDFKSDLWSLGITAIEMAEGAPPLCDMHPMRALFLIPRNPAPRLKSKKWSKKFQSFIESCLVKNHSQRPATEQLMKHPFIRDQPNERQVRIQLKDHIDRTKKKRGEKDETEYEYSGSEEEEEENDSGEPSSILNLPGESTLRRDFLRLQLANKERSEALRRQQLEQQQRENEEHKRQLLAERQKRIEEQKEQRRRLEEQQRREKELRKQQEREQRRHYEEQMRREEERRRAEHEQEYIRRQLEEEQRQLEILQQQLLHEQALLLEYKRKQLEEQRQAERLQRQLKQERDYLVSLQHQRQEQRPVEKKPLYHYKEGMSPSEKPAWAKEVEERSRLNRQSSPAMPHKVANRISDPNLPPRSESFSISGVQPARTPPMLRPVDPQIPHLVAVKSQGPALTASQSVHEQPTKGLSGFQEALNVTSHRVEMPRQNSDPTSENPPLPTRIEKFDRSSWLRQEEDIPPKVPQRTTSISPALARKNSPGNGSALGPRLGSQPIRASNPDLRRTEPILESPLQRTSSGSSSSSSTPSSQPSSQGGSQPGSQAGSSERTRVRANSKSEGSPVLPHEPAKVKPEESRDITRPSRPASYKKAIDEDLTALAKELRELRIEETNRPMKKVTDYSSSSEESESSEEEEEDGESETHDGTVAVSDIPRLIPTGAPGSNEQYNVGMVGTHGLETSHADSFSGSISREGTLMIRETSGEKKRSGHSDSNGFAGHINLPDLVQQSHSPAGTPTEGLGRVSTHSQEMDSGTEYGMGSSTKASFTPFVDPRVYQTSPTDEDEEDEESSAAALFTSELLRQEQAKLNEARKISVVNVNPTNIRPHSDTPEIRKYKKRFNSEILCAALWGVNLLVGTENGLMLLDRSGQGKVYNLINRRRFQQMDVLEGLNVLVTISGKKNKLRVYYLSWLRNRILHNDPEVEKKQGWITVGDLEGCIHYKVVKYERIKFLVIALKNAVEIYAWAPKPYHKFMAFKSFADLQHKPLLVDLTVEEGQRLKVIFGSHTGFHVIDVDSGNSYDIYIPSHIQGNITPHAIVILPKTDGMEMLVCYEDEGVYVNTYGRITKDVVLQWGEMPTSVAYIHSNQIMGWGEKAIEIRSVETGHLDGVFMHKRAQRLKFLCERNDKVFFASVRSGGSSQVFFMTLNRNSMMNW
G protein-coupled receptor kinase 4 (Homo sapiens), sequence (P32298 whole entry, looked up): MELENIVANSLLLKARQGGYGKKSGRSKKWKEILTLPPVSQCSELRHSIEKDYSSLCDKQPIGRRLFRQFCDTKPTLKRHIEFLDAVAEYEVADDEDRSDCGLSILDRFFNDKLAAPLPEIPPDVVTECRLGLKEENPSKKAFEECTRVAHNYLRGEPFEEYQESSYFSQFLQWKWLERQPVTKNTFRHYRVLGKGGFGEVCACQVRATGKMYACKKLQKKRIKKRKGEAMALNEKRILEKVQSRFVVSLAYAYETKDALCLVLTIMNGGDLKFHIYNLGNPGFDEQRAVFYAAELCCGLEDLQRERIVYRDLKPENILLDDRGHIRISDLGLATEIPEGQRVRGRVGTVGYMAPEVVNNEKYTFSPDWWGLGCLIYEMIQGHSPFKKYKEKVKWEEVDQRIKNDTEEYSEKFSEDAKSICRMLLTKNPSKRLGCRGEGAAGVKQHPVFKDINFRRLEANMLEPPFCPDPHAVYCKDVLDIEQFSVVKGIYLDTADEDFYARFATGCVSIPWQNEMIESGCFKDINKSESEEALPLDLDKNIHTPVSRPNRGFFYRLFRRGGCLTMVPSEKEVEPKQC
Ephrin type-A receptor 4 (Homo sapiens), sequence (P54764 whole entry): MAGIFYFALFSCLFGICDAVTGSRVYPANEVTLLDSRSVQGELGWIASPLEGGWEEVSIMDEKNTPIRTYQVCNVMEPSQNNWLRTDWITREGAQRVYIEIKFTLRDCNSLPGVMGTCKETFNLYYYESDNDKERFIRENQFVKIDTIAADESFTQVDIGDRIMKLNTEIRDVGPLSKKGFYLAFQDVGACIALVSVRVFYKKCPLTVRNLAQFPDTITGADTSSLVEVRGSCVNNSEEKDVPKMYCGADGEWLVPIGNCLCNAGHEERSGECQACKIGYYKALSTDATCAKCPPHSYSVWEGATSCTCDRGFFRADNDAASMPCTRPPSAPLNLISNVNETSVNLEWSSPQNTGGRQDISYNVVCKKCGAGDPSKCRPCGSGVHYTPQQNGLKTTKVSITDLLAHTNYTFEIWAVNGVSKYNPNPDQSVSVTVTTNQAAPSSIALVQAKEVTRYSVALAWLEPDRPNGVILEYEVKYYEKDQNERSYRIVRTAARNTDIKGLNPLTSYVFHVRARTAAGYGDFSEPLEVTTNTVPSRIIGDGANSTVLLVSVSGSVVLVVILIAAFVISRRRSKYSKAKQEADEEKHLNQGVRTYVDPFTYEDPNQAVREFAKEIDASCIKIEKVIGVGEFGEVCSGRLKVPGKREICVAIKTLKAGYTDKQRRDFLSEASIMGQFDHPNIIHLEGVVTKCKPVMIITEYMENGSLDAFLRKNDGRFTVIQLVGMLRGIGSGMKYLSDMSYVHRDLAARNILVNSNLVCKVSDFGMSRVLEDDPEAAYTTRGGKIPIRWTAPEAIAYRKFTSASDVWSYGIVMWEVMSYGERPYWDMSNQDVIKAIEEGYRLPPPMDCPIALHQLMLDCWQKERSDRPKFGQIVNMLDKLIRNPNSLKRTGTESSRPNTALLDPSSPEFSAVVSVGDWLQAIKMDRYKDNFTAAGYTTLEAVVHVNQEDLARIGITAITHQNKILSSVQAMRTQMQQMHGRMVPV
TGF-beta receptor type-2 (Homo sapiens), sequence (P37173 whole entry): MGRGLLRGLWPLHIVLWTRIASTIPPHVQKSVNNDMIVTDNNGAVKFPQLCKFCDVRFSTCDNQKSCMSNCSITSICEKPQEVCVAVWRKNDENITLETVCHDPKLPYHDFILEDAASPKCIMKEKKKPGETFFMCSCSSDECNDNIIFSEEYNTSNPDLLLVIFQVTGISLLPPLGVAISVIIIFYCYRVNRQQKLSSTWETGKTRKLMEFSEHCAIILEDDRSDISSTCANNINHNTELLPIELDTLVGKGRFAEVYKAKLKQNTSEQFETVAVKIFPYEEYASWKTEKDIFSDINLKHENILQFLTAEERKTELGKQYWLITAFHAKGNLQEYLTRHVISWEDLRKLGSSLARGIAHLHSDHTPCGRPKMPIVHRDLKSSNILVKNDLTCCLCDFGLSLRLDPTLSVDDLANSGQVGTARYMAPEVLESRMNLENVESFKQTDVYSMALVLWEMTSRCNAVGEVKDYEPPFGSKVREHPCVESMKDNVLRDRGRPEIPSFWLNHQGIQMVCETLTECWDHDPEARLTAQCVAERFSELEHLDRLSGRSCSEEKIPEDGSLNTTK

For `C[C@H](Nc1ncnc2nc[nH]c12)c1cc2cccc(Cl)c2c(=O)n1-c1ccccc1`, the Activity in assay [1] turned out to be 96.3%; in [2], 111%; in assay [3] it was 87.9%; in assay [4], 99.7%; in assay [5] it was 92.2%; in [6] it was 114%. Further, the Activity in [7] was determined as 87%; in assay [8], 97.3%; in assay [9] it was 93.9%; in assay [10] it was 98.8%.
As for `CC[C@H](Nc1ncnc2[nH]cnc12)c1nc2cccc(F)c2c(=O)n1-c1ccccc1`, the Activity in [1] was 94.6%; in assay [2], 99.7%; in assay [3], 93.8%; in assay [4], 94.5%; in assay [5], 93.2%; in assay [6], 110%. In addition, the Activity was found to be 93.5% in assay [7], 96% in assay [8], 98% in assay [9] and 98.1% in assay [10].
Consider `CC(C)Oc1ccc(-c2nn([C@@H](C)c3oc4ccc(F)cc4c(=O)c3-c3cccc(F)c3)c3ncnc(N)c23)cc1F` [UMBRALISIB], for which the Activity turned out to be 96.8% in assay [1]; 107% in assay [2]; 85.9% in assay [3]; 97.7% in assay [4]; 95.1% in assay [5]; 97.4% in [6]. Besides, the Activity in [7] is 105%; in [8], 99.8%; in [9] it was 95.5%; in assay [10], 94.2%.
